Laboratory results as given in patent publication US20220274947A1, “NOVEL HETEROARYL-TRIAZOLE COMPOUNDS AS PESTICIDES” (Bayer Aktiengesellschaft, priority 2019, published 2022).

Key:
Type in all cases: in vivo
[1] = tested on: Rhipicephalus sanguineus; experiment: Rhipicephalus sanguineus in-vitro contact test, adult brown dog ticks (RHIPSA Cont); settings: 48 h, after 48 hours, read-out: activity (efficacy: 100% means all ticks are dead or moribund); for pest or weed control at 1 µg/cm2, 100 g/ha: application rate 1 μg/cm^2 (=100 g/ha); for pest or weed control at 5 µg/cm2, 500 g/ha: application rate 5 μg/cm^2 (=500 g/ha)
Summary of the method: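 Compound in acetone (9 mg/mL stock, diluted to test concentration) is coated onto inner walls of glass tubes by rotation for 2 h at 30 rpm. Efficacy is read after 48 h: ticks are tapped down and held on a 45-50° C plate for at most 5 min, and immotile or uncoordinated ones that fail to climb away count as dead or moribund.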

[2] = tested on: Myzus persicae; experiment: Myzus persicae oral test; settings: 120 h, read-out: activity (mortality)
Summary of the method: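 Percent mortality was recorded at day 5, where 0% means no aphids killed. Compound prepared from an acetone concentrate diluted in water and combined with IPL41 medium containing sugar was offered to mixed-stage green peach aphids, which sucked it through a parafilm seal.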

[3] = tested on: Musca domestica strain WHO—N; experiment: Musca domestica test (MUSCDO surface treatment & contact assay); settings: exposure 30 minutes, 24 hours after contact, read-out: efficacy (mortality); for mortality at 20 mg/m2: surface concentration 20 mg/m^2, glazed tile; for mortality at 4 mg/m2: surface concentration 4 mg/m^2, glazed tile
Summary of the method: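 Compound dissolved in acetone (2 mg/ml) with 2000 ppm rapeseed oil methyl ester and pipetted onto glazed tile; after acetone evaporation, adult flies exposed to dried surface for 30 minutes. Mortality (%) scored 24 hours after contact.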

[4] = tested on: Aedes aegypti strain MONHEIM; experiment: Aedes aegypti test (AEDSAE surface treatment & contact assay); settings: exposure 30 minutes, 24 hours after contact, read-out: efficacy (mortality); for mortality at 4 mg/m2: surface concentration 4 mg/m^2, glazed tile; for mortality at 20 mg/m2: surface concentration 20 mg/m^2, glazed tile
Summary of the method: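 Compound dissolved in acetone (2 mg/ml) with 2000 ppm rapeseed oil methyl ester, pipetted onto glazed tile and dried. Adult mosquitoes exposed on the surface for 30 min; percent mortality scored 24 h after contact.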

[5] = tested on: Culex quinquefasciatus strain P00; experiment: Culex quinquefasciatus test (CULXFA surface treatment & contact assay); settings: exposure 30 minutes, 24 hours after contact, read-out: efficacy (mortality); for mortality at 20 mg/m2: surface concentration 20 mg/m^2, glazed tile; for mortality at 4 mg/m2: surface concentration 4 mg/m^2, glazed tile
Method: Culex quinquefasciatus Test (CULXFA Surface Treatment & Contact Assay) Solvent: Aceton+2000 ppm rapeseed oil methyl ester (RME)
In order to produce a sufficient, active ingredient containing solution it is necessary to solve the test compound in the solvent-mix (acetone at 2 mg/ml/RME 2 000 ppm). This solution is pipetted onto a glazed tile and after evaporation of the acetone, adult mosquitoes of the species Culex quinquefasciatus strain P00 are placed onto the dried surface. The exposure time is 30 minutes. Mortality in percent (%) is determined 24 hours after contact of the insects to the treated surface. 100% mortality means that all tested insects are dead, whereas 0% means that no insect died.

[6] = tested on: Nezara viridula; experiment: Nezara viridula spray test; settings: in Hordeum vulgare, 96 h, barley plants, larvae, after 4 days; for mortality at 500 g/ha: application rate 500 g/ha; for mortality at 100 g/ha: application rate 100 g/ha
Summary of the method: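 Barley plants infested with N. viridula larvae were sprayed with compound in acetone/DMF diluted with water containing 1000 ppm alkylarylpolyglycol ether emulsifier. Mortality (%) was scored after 4 days; 100% means all bugs killed, 0% none.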

[7] = tested on: Anopheles funestus strain FUMOZ-R; experiment: Anopheles funestus test (ANPHFU surface treatment & contact assay); settings: surface concentration 4 mg/m^2, glazed tile, exposure 30 minutes, 24 hours after contact, read-out: efficacy (mortality)
Summary of the method: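 Adult FUMOZ-R mosquitoes were exposed 30 min to glazed tiles treated with compound in acetone plus 2000 ppm rapeseed oil methyl ester, after solvent evaporation. Percent mortality was scored 24 h after contact.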

SMILES	pest or weed control at 1 µg/cm2, 100 g/ha [1] [%]	mortality at 4 ppm [2] [%]	mortality at 20 mg/m2 [3] [%]	mortality at 4 mg/m2 [4] [%]	mortality at 20 mg/m2 [4] [%]	mortality at 20 mg/m2 [5] [%]	mortality at 500 g/ha [6] [%]	pest or weed control at 5 µg/cm2, 500 g/ha [1] [%]	mortality at 4 mg/m2 [5] [%]	mortality at 4 mg/m2 [3] [%]	mortality at 100 g/ha [6] [%]	mortality at 4 mg/m2 [7] [%]	mortality at 0.8 ppm [2] [%]
CC(C)c1nc([C@H](C)NC(=O)c2cncc(C(F)(F)F)c2)n(-c2ccc(C#N)cn2)n1 [I-30]	80	90	80 to 100	80 to 100	80 to 100	–	–	–	–	–	–	–	–
C[C@H](NC(=O)c1cc(Cl)cc(OC(F)(F)F)c1)c1ncnn1-c1cc(N)ccn1 [II-7]	–	100	80 to 100	–	80 to 100	80 to 100	90	–	–	–	–	–	–
C[C@H](NC(=O)c1cc(Cl)cc(SC(F)F)c1)c1ncnn1-c1ccc(C#N)cn1 [II-11]	–	100	80 to 100	80 to 100	80 to 100	80 to 100	–	80	80 to 100	80 to 100	100	–	–
C[C@H](NC(=O)c1cc(Br)cc(Br)c1)c1ncnn1-c1ccc(C#N)cn1 [II-13]	100	90	80 to 100	80 to 100	80 to 100	80 to 100	90	80	–	80 to 100	–	–	–
C[C@H](NC(=O)c1cc(Br)cc(OC(F)(F)F)c1)c1ncnn1-c1ccc(C#N)cn1 [II-14]	80	100	80 to 100	80 to 100	80 to 100	–	100	80	–	80 to 100	100	80 to 100	–
Cc1nc([C@H](C)NC(=O)c2cc(Cl)cc(C(F)(F)F)c2)n(-c2cc(C#N)ccn2)n1 [II-18]	100	100	80 to 100	–	–	80 to 100	–	100	–	80 to 100	–	–	–
Cc1nc([C@H](C)NC(=O)c2cc(C(F)(F)F)cc(C(F)(F)F)c2)n(-c2cc(C#N)ccn2)n1 [II-19]	100	100	80 to 100	80 to 100	80 to 100	80 to 100	–	100	–	–	–	–	100
Cc1nc([C@H](C)NC(=O)c2cc(Br)cc(C(F)(F)F)c2)n(-c2ccc(C#N)cn2)n1 [II-32]	100	100	80 to 100	80 to 100	80 to 100	–	100	100	–	80 to 100	100	–	100
C[C@H](NC(=O)c1cc(C(F)(F)F)cc(C(F)(F)F)c1)c1ncnn1-c1ccc(C(=O)NC2CC2)cn1 [II-37]	–	100	–	80 to 100	80 to 100	80 to 100	100	80	–	–	90	–	100
C[C@H](NC(=O)c1cc(Cl)cc(C#N)c1)c1ncnn1-c1ccc(C#N)cn1 [II-57]	100	–	80 to 100	80 to 100	80 to 100	80 to 100	–	100	80 to 100	80 to 100	100	–	–
